Data as given in PubChem BioAssay AID623941 (Vanderbilt Specialized Chemistry Center, 2012).
Calls of active or inactive are those of the source.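 Rule for the calls: active = response rises or falls steadily with concentration, forming a dose-response curve as judged by the submitting lab; inactive = the rest.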

The molecules below were run against Muscarinic acetylcholine receptor M2 (Rattus norvegicus) (UniProt P10980) (assay: off-target potentiation of rat M2 ACh response – CHO cells, Gqi5 chimera, calcium, ACh EC20, selectivity assay for M4 PAM optimization project, SAR follow-up (AID 623941)). Settings: CHO rM2/Gqi5 calcium fluorescence.
Chain of Muscarinic acetylcholine receptor M2 (Rattus norvegicus) (P10980 whole entry, looked up): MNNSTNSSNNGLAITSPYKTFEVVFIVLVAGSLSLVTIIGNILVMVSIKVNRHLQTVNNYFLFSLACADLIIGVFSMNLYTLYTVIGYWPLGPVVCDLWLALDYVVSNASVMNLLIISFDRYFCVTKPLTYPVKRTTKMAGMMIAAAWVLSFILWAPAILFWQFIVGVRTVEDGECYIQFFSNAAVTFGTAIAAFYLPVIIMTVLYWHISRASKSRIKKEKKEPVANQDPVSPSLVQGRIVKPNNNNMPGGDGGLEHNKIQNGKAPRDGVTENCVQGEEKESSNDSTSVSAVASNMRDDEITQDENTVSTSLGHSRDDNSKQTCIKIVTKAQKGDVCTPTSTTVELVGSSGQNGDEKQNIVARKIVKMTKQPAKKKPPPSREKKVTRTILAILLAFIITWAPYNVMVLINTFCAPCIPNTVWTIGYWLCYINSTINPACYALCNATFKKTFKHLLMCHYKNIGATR

Row | SMILES | outcome | EC50 [nM]
1 | Cc1nc2sc(C(=O)NCc3ccc4c(c3)OCO4)c(N)c2c(C)c1Cl | inactive | 
2 | Cc1nc2sc(C(=O)NC3CC3)c(N)c2c(C)c1Cl |  | 640
3 | Cc1nc2sc(C(=O)NCc3ccccc3)c(N)c2c(C)c1Cl | inactive | 

Results, then the molecule that gave them:

Row | outcome | EC50 [nM] | SMILES
4 | inactive |  | Cc1nc2sc(C(=O)NCc3ccncc3)c(N)c2c(C)c1Cl
5 | inactive |  | Cc1nc2sc(C(=O)NCc3cccnc3)c(N)c2c(C)c1Cl

Same assay, conditions: CHO rM2/Gqi5 calcium fluorescence, at 30 µM (top of the series)

Row | SMILES | % ACh max response
6 | Cc1nc2sc(C(=O)NCc3nccs3)c(N)c2c(C)c1Cl | inactive
7 | Cc1nc2sc(C(=O)NCc3cccc(F)c3F)c(N)c2c(C)c1Cl | inactive

Now from value to molecule:

Row | % ACh max response | SMILES
8 | inactive | Cc1nc2sc(C(=O)NCc3ccncn3)c(N)c2c(C)c1Cl
9 | inactive | Cc1nc2sc(C(=O)NCCc3ccncc3)c(N)c2c(C)c1Cl
10 | inactive | COc1ccc(C)c2sc(NC(=O)c3ccncc3)nc12
